In ChEMBL document CHEMBL3813693, “Gastroprotective effects of new diterpenoid derivatives from Azorella cuatrecasasii Mathias & Constance obtained using a β-cyclodextrin complex with microbial and chemical transformations” (2016):

How the values were obtained:
Mus musculus [1] = test: Gastroprotective activity in Swiss albino mouse assessed as reduction in HCl/EtOH-induced gastric lesions at 20 mg/kg, po dosed 50 mins before HCl/EtOH challenge measured after 1 hr relative to control; type: functional; conditions: Stomach
Mus musculus [2] = test: Gastroprotective activity in Swiss albino mouse model of HCl/EtOH-induced ulcer assessed as lesion index at 20 mg/kg, po dosed 50 mins before HCl/EtOH challenge measured after 1 hr (reference value: 37.7 +/- 4.3 millimeter); type: functional

Compound | inhibition in vivo at 20 mg/kg (Mus musculus [1]) [%] | UI (Mus musculus [2]) [mm]
CC(=O)OCC1=CC[C@]2(C)[C@H](OC(C)=O)C[C@]3(C(=O)O)[C@@H](C(C)C)CC[C@H]3[C@@H]2C=C1 | 48 | 19.6
CC(=O)OCC1=CC[C@]2(C)CC[C@]3(C(=O)O)[C@@H](C(C)C)CC[C@H]3[C@@H]2C=C1 | 43 | 21.6
CC(C)[C@H]1CC[C@H]2[C@@H]3C=CC(CO)=CC[C@]3(C)CC[C@]12C(=O)O | 59 | 15.4
CC(C)[C@H]1CC[C@H]2[C@@H]3C=CC(CO)=CC[C@]3(C)[C@H](O)C[C@]12C(=O)O | 69 | 11.8
COC(=O)[C@]12C[C@@H](OC(C)=O)[C@@]3(C)CC=C(COC(C)=O)C=C[C@H]3[C@@H]1CC[C@@H]2C(C)C | 6 | 35.6
COC(=O)[C@]12CC[C@@]3(C)CC=C(COC(C)=O)C=C[C@H]3[C@@H]1CC[C@@H]2C(C)C | 3 | 36.8
COC(=O)[C@]12C[C@@H](O)[C@@]3(C)CC=C(CO)C=C[C@H]3[C@@H]1CC[C@@H]2C(C)C | 36 | 24.3
COC(=O)[C@]12CC[C@@]3(C)CC=C(CO)C=C[C@H]3[C@@H]1CC[C@@H]2C(C)C | 18 | 31
Cc1c(OCC(F)(F)F)ccnc1C[S+]([O-])c1nc2ccccc2[nH]1 (stereo not drawn) [LANSOPRAZOLE] | 57 | 16.1
